Here are results for three molecules from patent US20220007687A1, “SHELF STABLE LIQUID FLAVORED CONCENTRATE” (DreamPak LLC, priority 2020, published 2022).

The structures appear in SMILES notation.

The first data set in a line: pH of acid solutions in water (Example 1). It is filed as physicochemical. As to conditions: 22 g acid in 78 ml water; 2 ml of the mixture diluted in 250 ml water. The method, then:
The pH, taste, and mouthfeel of lactic, citric, and malic acids are compared. With each acid, 22 g of the acid is mixed in 78 ml of water, then 2 ml of the mixture is diluted in 250 ml of water, and pH readings of the diluted solutions are obtained.
For `O=C(O)CC(O)(CC(=O)O)C(=O)O` [Citric Acid, citric acid], the pH was determined as 1.15.
For the molecule `CC(O)C(=O)O` (stereo not drawn) [Lactic Acid, 2-hydroxypropionic acid], the pH is reported as 1.45.
The same measure, in the same setting: the same measure for `O=C(O)CC(O)C(=O)O` (stereo not drawn) [Malic Acid, malic acid]: 1.33.

The nature of another data set: pH of acid solutions with sodium citrate buffer (Example 2). It is filed as physicochemical. Conditions: buffered concentrate (Example 2) compared to concentrate without buffer (Example 1). The method, then:
The impact of adding a buffer to solutions of lactic, citric, and malic acid is researched. With each acid, 22 g of the acid is mixed with 2 g of sodium citrate in 76 ml of water, and pH readings of the concentrates are obtained, then 2 ml of the concentrates is diluted in 250 ml of water and the resulting solutions were evaluated for taste and mouthfeel.
In the case of `O=C(O)CC(O)(CC(=O)O)C(=O)O` [Citric Acid, citric acid], the “delta pH” value came to 0.87.
The same measure, in the same setting: the same measure for `CC(O)C(=O)O` (stereo not drawn) [Lactic Acid, 2-hydroxypropionic acid]: 1.04.
Still for that read-out and setting: the same measure for `O=C(O)CC(O)C(=O)O` (stereo not drawn) [Malic Acid, malic acid]: 0.79.

Staying with this data set, now noted: concentrate: 22 g acid, 2 g sodium citrate, 76 ml water.
Take `O=C(O)CC(O)(CC(=O)O)C(=O)O` [Citric Acid, citric acid]: the pH turned out to be 2.02.
On the same count and under the same terms, the same measure for `CC(O)C(=O)O` (stereo not drawn) [Lactic Acid, 2-hydroxypropionic acid]: 2.49.
The molecule `O=C(O)CC(O)C(=O)O` (stereo not drawn) [Malic Acid, malic acid] displayed a pH of 2.12.
